Test results published in US8946215B2, “Hydroxy-substituted imidazo[1,2-a]pyridinecarboxamides and their use” (Bayer Pharma Aktiengesellschaft, priority 2012, dated 2015).

Biological target: T1, recombinant guanylate cyclase reporter cell line (Rattus norvegicus, UniProt P19686+P20595)
T1 construct: expressed in transfected cells
T1 sequence (P20595 1-619): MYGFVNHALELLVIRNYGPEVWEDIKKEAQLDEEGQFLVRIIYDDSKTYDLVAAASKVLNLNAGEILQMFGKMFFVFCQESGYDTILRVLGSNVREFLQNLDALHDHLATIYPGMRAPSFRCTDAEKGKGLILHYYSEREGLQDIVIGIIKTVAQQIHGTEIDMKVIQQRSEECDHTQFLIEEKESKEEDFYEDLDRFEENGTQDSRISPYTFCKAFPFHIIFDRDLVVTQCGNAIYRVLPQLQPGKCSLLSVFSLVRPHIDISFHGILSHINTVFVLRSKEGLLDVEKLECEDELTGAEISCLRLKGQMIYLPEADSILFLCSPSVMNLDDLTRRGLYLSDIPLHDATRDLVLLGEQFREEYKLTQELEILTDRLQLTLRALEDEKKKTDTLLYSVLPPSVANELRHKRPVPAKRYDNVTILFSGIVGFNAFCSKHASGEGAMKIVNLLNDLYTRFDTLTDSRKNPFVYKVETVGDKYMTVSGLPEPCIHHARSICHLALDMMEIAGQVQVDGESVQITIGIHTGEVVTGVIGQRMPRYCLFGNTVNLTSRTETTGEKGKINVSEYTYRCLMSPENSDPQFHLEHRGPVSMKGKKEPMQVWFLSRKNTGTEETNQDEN
T1 sequence (P19686 1-690): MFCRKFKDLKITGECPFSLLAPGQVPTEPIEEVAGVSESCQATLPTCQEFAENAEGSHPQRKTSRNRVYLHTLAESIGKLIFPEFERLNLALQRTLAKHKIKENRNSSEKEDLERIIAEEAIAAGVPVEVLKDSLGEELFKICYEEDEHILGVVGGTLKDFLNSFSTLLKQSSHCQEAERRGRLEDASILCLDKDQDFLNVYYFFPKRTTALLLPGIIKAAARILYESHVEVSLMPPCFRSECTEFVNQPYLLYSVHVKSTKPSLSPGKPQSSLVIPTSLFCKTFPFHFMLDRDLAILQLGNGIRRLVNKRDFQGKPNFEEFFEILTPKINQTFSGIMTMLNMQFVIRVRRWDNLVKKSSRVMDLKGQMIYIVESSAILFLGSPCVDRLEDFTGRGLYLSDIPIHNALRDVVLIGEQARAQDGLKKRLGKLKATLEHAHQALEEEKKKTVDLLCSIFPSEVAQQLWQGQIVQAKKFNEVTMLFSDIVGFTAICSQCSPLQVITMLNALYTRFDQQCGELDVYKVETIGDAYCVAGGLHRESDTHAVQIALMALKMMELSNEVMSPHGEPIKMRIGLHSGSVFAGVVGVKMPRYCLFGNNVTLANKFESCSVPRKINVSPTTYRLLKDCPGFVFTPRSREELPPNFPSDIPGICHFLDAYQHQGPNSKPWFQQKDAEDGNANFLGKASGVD
Experiment: Action on recombinant guanylate cyclase reporter cell line
Format: cell-based
Conditions: in some cases mean values obtained from individual determinations
Description: B-2. Action on Recombinant Guanylate Cyclase Reporter Cell Line
The cellular action of the compounds according to the invention is determined on a recombinant guanylate cyclase reporter cell line, as described in F. Wunder et al., Anal. Biochem. 339, 104-112 (2005).
Representative values (MEC=minimal effective concentration) for the compounds according to the invention are shown in the following table (in some cases as mean values obtained from individual determinations): […]

Structure (SMILES)	MEC (minimal effective concentration)
CCCC[C@H](CO)NC(=O)c1c(C)nc2c(OCc3c(F)cccc3F)cccn12 [Example 1, 8-[(2,6-Difluorobenzyl)oxy]-N-[(2R)-1-hydroxyhexan-2-yl]-2-methylimidazo[1,2-a]pyridine-3-carboxamide]	0.05 µM
CCCC[C@H](CO)NC(=O)c1c(C)nc2c(OCc3c(F)ccc(F)c3F)cccn12 [Example 2]	0.03 µM
CCCC[C@H](CO)NC(=O)c1c(C)nc2c(OCc3c(F)cccc3Cl)cccn12 [Example 3]	0.1 µM
CCCC[C@H](CO)NC(=O)c1c(C)nc2c(OCc3ccccc3Cl)cccn12 [Example 4]	0.1 µM
CCCC[C@H](CO)NC(=O)c1c(C)nc2c(OCc3ccccc3F)cccn12 [Example 5]	0.1 µM
CCCC[C@H](CO)NC(=O)c1c(C)nc2c(OCc3cccc(F)c3)cccn12 [Example 6]	0.1 µM
CCCC[C@H](CO)NC(=O)c1c(C)nc2c(OCc3c(F)c(F)cc(F)c3F)cccn12 [Example 7]	0.3 µM
CCCC[C@H](CO)NC(=O)c1c(C)nc2c(OCc3c(Cl)cccc3Cl)cccn12 [Example 8]	0.3 µM
CCCC[C@H](CO)NC(=O)c1c(C)nc2c(OCc3cccc(Cl)c3Cl)cccn12 [Example 9]	0.5 µM
CCCC[C@H](CO)NC(=O)c1c(C)nc2c(OCc3cccc(F)c3F)cccn12 [Example 10]	0.3 µM
CCCC[C@H](CO)NC(=O)c1c(C)nc2c(OCc3cccc(C)c3F)cccn12 [Example 11]	1.5 µM

Continued, values first:

MEC (minimal effective concentration)	Structure (SMILES)
0.03 µM	Cc1nc2c(OCc3c(F)cccc3F)cccn2c1C(=O)NC(CO)CCCC(F)(F)F (single isomer, unassigned; ent-8) [Example 123, ent-8-[(2,6-Difluorobenzyl)oxy]-2-methyl-N-(6,6,6-trifluoro-1-hydroxyhexan-2-yl)imidazo[1,2-a]-pyridine-3-carboxamide]
0.03 µM	Cc1nc2c(OCc3c(F)cccc3F)cccn2c1C(=O)NC(CC(F)(F)F)C(C)(C)O (single isomer, unassigned; ent-8) [Example 154, ent-8-[(2,6-Difluorobenzyl)oxy]-2-methyl-N-(1,1,1-trifluoro-4-hydroxy-4-methylpentan-3-yl)-imidazo[1,2-a]pyridine-3-carboxamide]
0.1 µM	Cc1nc2c(OCc3c(F)cccc3F)cccn2c1C(=O)NC(CCC(F)(F)F)C(C)(C)O (single isomer, unassigned; ent-8) [Example 155, ent-8-[(2,6-Difluorobenzyl)oxy]-2-methyl-N-(6,6,6-trifluoro-2-hydroxy-2-methylhexan-3-yl)-imidazo[1,2-a]pyridine-3-carboxamide]
0.03 µM	Cc1nc2c(OCc3c(F)cccc3F)cccn2c1C(=O)NC(CCCC(F)(F)F)C(C)(C)O (single isomer, unassigned; ent-8) [Example 156, ent-8-[(2,6-Difluorobenzyl)oxy]-2-methyl-N-(7,7,7-trifluoro-2-hydroxy-2-methylheptan-3-yl)-imidazo[1,2-a]pyridine-3-carboxamide]
1.0 µM	CCOCC(CO)NC(=O)c1c(C)nc2c(OCc3c(F)cccc3F)cccn12 (single isomer, unassigned; ent-8) [Example 161, ent-8-[(2,6-Difluorobenzyl)oxy]-N-(1-ethoxy-3-hydroxypropan-2-yl)-2-methylimidazo[1,2-a]-pyridine-3-carboxamide (enantiomer A)]
1.0 µM	CCCCC(NC(=O)c1c(C)nc2c(OC(C)c3c(F)cccc3F)cc(C)cn12)C(C)(C)O (single isomer, unassigned; ent-8) [Example 171, ent-8-[1-(2,6-Difluorophenyl)ethoxy]-N-(2-hydroxy-2-methylheptan-3-yl)-2,6-dimethylimidazo-[1,2-a]pyridine-3-carboxamide]
0.65 µM	Cc1nc2c(OCc3ncccc3F)cccn2c1C(=O)NC(CCCC(F)(F)F)C(C)(C)O (single isomer, unassigned; ent-8) [Example 182, ent-8-[(3-fluoropyridin-2-yl)methoxy]-2-methyl-N-(7,7,7-trifluoro-2-hydroxy-2-methylheptan-3-yl)imidazo[1,2-a]pyridine-3-carboxamide (enantiomer A)]
0.3 µM	Cc1nc2c(OCc3ncccc3F)cccn2c1C(=O)NC(CCCC(F)(F)F)C(C)(C)O (single isomer, unassigned; ent-8) [Example 183, ent-8-[(3-fluoropyridin-2-yl)methoxy]-2-methyl-N-(7,7,7-trifluoro-2-hydroxy-2-methylheptan-3-yl)imidazo[1,2-a]pyridine-3-carboxamide (enantiomer B)]
0.3 µM	Cc1cc(OCc2ncccc2F)c2nc(C)c(C(=O)NC(CC(F)(F)F)C(C)(C)O)n2c1 (single isomer, unassigned; ent-8) [Example 185, ent-8-[(3-fluoropyridin-2-yl)methoxy]-2,6-dimethyl-N-(1,1,1-trifluoro-4-hydroxy-4-methylpentan-3-yl)imidazo[1,2-a]pyridine-3-carboxamide (enantiomer B)]
1 µM	Cc1cc(OCc2c(F)cncc2F)c2nc(C)c(C(=O)NC(CCCC(F)(F)F)C(C)(C)O)n2c1 (single isomer, unassigned; ent-8) [Example 189, ent-8-[(3,5-difluoropyridine-4-yl)methoxy]-2,6-dimethyl-N-(7,7,7-trifluoro-2-hydroxy-2-methylheptan-3-yl)imidazo[1,2-a]pyridine-3-carboxamide (enantiomer A)]
3 µM	Cc1cc(OCc2ncccc2F)c2nc(C)c(C(=O)NC(CCCC(F)(F)C(F)(F)F)C(C)(C)O)n2c1 (single isomer, unassigned; ent-8) [Example 191, ent-8-[(3-fluoropyridin-2-yl)methoxy]-2,6-dimethyl-N-(7,7,8,8,8-pentafluoro-2-hydroxy-2-methyloctan-3-yl)imidazo[1,2-a]pyridine-3-carboxamide (enantiomer A)]
2 µM	Cc1cc(OCc2ncccc2F)c2nc(C)c(C(=O)NC(CCCC(F)(F)C(F)(F)F)C(C)(C)O)n2c1 (single isomer, unassigned; ent-8) [Example 192, ent-8-[(3-fluoropyridin-2-yl)methoxy]-2,6-dimethyl-N-(7,7,8,8,8-pentafluoro-2-hydroxy-2-methyloctan-3-yl)imidazo[1,2-a]pyridine-3-carboxamide (enantiomer B)]
1 µM	Cc1cc(OCc2c(F)cncc2F)c2nc(C)c(C(=O)NC(CCC(F)(F)C(F)(F)F)C(C)(C)O)n2c1 (single isomer, unassigned; ent-8) [Example 193, ent-8-[(3,5-difluoropyridine-4-yl)methoxy]-2,6-dimethyl-N-(6,6,7,7,7-pentafluoro-2-hydroxy-2-methylheptan-3-yl)imidazo[1,2-a]pyridine-3-carboxamide (enantiomer A)]
3 µM	Cc1cc(OCc2ncccc2F)c2nc(C)c(C(=O)NC(CCC(O)C(F)(F)F)C(C)(C)O)n2c1 (single isomer, unassigned; ent-8) [Example 196, ent-8-[(3-fluoropyridin-2-yl)methoxy]-2,6-dimethyl-N-(7,7,7-trifluoro-2,6-dihydroxy-2-methylheptan-3-yl)imidazo[1,2-a]pyridine-3-carboxamide (enantiomer D)]
3.0 µM	CCCC[C@H](CO)NC(=O)c1c(C)nc2c(OCc3cccc4c3OC(F)(F)O4)cccn12 [Example 12]
3.0 µM	CCCC[C@H](CO)NC(=O)c1c(C)nc2c(OCc3c(C)cccc3C)cccn12 [Example 13]
